# Entries after “also recorded” stand apart in the source; their conditions may differ.
# Assays:
# ODC = ODC activity in treated ovarian adenocarcinoma line; type: cell-based, human; details: ivospemin 5 μM, doxorubicin 500 nM, 48 hours
# Experimental: (§1) FIG. 11. […] The activity of the polyamine catabolic enzyme SSAT and the polyamine biosynthetic enzyme ODC was evaluated.
# (§2) The activity of polyamine catabolic enzyme SSAT and polyamine biosynthetic enzyme ODC were evaluated.
# [1] = system: VDID8+ syngeneic ovarian epithelial cancer cells; test: VDID8+ syngeneic mouse model of ovarian cancer (survival, ascites); details: for effect on survival as single agent / average ascites volume at first drain: monotherapy; for effect on survival as single agent: VDID8+ model; for average time between VDID8+ cell injection and ascites formation: 15% weight gain or visible abdominal swelling
# Experimental: Syngeneic mouse model. Female C57BL/6J wild-type mice (7-8 weeks old, The Jackson Laboratory) were housed at the Johns Hopkins Sidney Kimmel Comprehensive Cancer Center Animal Resources Core and cared for in accordance with the policies set forth by the Johns Hopkins University Animal Care and Use Committee. VEGF-β-Defensin ID8 (VDID8+) syngeneic mouse ovarian surface epithelial cells (first developed by Dr. Katherine Roby) were injected intraperitoneally into C57BL/6 mice (350,000 cells/mouse) (Roby et al., 2000). Treatment of mice began three days following VDID8^+ injection. Mice in the combination study were treated with the following dosing schedule: 24 mg/kg ivospemin 2qw×3, alternating weeks; 30 mg/kg gemcitabine qw×4; 1 mg/kg topotecan 3qw×4. All drugs were administered intraperitoneally. Following production of palpable ascites fluid or a 15% weight gain, animals were drained of their ascites fluid, which was measured as a marker for tumor burden. Decisions for subsequent drains was determined by the same criteria. No animals were drained more than once a week, and animals who survived to a fourth drain were subsequently euthanized.
# Statistical analysis. All statistical testing was completed using GraphPad Prism software (v9.5.1, La Jolla, CA). […] Multiple testing correction was performed based on the Benjamini-Hochberg method. […] All mouse survival curves were analyzed using the log-rank (Mantel-Cox) test. Mouse ascites data were analyzed by one-way ANOVA and then individual comparisons were analyzed by two-sided Welch's t-tests unless otherwise specified. Multiple testing correction was performed based on the Benjamini-Hochberg method. […] P-value indications are as follows: *<0.05; **<0.01; ***<0.001; ****<0.0001.
# [2] = in vivo; cited from earlier work
# SSAT = SSAT activity in treated ovarian adenocarcinoma line; type: cell-based, human; details: ivospemin 5 μM, doxorubicin 500 nM, 48 hours
# Experimental: as §1, §2
# ACRP = test: Cell viability assay (CellTiter-Blue), ACRP; type: cell-based; details: for toxicity of the chemotherapeutic agent with ivospemin co-treatment (cell viability): 2 μM ivospemin 96 h, chemotherapeutic last 24 h
# Text: (§3) Cell lines, culture conditions, and reagents. Ovarian adenocarcinoma cell lines A2780 and ACRP were maintained in RPMI 1640 containing 10% fetal bovine serum. Ovarian adenocarcinoma lines CaOV-3 and OV90 were maintained in DMEM supplemented with 10% fetal bovine serum. ID8 mouse ovarian surface epithelial cells (MOSE) overexpressing VEGF and β-Defensin (VDID8+) were maintained in RPMI 1640 supplemented with 10% fetal bovine serum. […] All chemotherapeutics were purchased commercially from Sigma-Aldrich (St. Louis, MO).
# (§4) Cell viability assays. Cells were seeded in triplicate wells per condition with a total cell count of 2×10^3 cells per well of a 96-well plate and allowed to adhere overnight. Cells then received 100 μL fresh medium with increasing concentrations of ivospemin. Following 96 hours of ivospemin monotherapy, 20 μL of CellTiter-Blue reagent (Promega, Madison, WI) was added, and following a 3-hour incubation, the fluorescence was measured in black, clear-bottom plates at 560Ex/590Em on a SpectraMax M5 (Molecular Devices, Sunnyvale CA). Wells containing medium alone were used as background controls. The combination chemotherapy/ivospemin experiment conditions were identical except following 72 hours of ivospemin exposure, cells received fresh medium with ivospemin and the appropriate chemotherapeutic. After an additional 24 hours (96 total hours of ivospemin, 24 hours of chemotherapy), cell viability was determined using the CellTiter-Blue cell viability assay. Results are presented as percentages relative to untreated cells. Each bar is an average of at least 3 independent biological experiments (each experiment is noted by an individual point).
# CaOV-3 = test: Cell viability assay (CellTiter-Blue), CaOV-3; type: cell-based; details: for toxicity of the chemotherapeutic agent with ivospemin co-treatment (cell viability): CaOV-3, 2 μM ivospemin 96 h, chemotherapeutic last 24 h
# Text: as §3, §4
# A2780 = test: Cell viability assay (CellTiter-Blue), A2780; type: cell-based; details: for toxicity of the chemotherapeutic agent with ivospemin co-treatment (cell viability): A2780, 2 μM ivospemin 96 h, gemcitabine 50 nM, topotecan 50 nM, paclitaxel 2 nM, docetaxel 2 nM last 24 h
# Text: as §3, §4
# OV90 = test: Cell viability assay (CellTiter-Blue), OV90; type: cell-based; details: for toxicity of the chemotherapeutic agent with ivospemin co-treatment (cell viability): OV90, 2 μM ivospemin 96 h, chemotherapeutic last 24 h
# Text: as §3, §4
# [3] = system: ovarian adenocarcinoma cell lines; test: Cell viability, ovarian adenocarcinoma cell lines taken together; type: cell-based; details: for added in vitro toxicity/benefit of the chemotherapeutic over ivospemin (SBP-101) alone: cisplatin-sensitive and cisplatin-resistant ovarian cancer cell lines
# Text: as §3, §4
# The cisplatin-sensitive ovarian adenocarcinoma lines, A2780 and OV90 (FIG. 4A), and the cisplatin-resistant ovarian adenocarcinoma lines, ACRP and CaOV-3 (FIG. 4B), were treated for 96 hours with concentrations of ivospemin ranging from 500 nM to 10 μM. […] These four ovarian adenocarcinoma lines were then treated with various chemotherapeutic agents including gemcitabine (50 nM), topotecan (50 nM), paclitaxel (2 nM) and docetaxel (2 nM). These agents represent standard of care chemotherapeutic options used with some regularity in patients with platinum-resistant ovarian cancer. Cells were treated with three increasing concentrations of each chemotherapy alone to determine an appropriate dose prior to combination studies.
# tumor putrescine levels = details: eflornithine infusion; cited from earlier work
# VDID8+ cells = details: NSG mice
compound,measurement,setting,value
"COc1cccc2c1C(=O)c1c(O)c3c(c(O)c1C2=O)C[C@@](O)(C(=O)CO)C[C@@H]3OC1CC(N)C(O)C(C)O1 (stereo partly drawn) [doxorubicin, (8S,10S)-10-(4-amino-5-hydroxy-6-methyl-tetrahydro-2H-pyran-2-yloxy)-6,8,11-trihydroxy-8-(2-hydroxyacetyl)-1-methoxy-7,8,9,10-tetrahydrotetracene-5,12-dione]",ODC activity,ODC,does not have any effect
same,median survival,"[1]; ivospemin 24 mg/kg 2qw×4 alternating weeks, doxorubicin 0.5 mg/kg 2qw×4",96 days
same,effect on survival as single agent,[1],significantly increased
same,"nausea and vomiting, share of people treated",[2],30-90%
same,SSAT activity,SSAT,increases SSAT activity
Nc1ccn([C@@H]2O[C@H](CO)[C@@H](O)C2(F)F)c(=O)n1 [gemcitabine],toxicity of the chemotherapeutic agent with ivospemin co-treatment (cell viability),ACRP,greater toxicity than ivospemin alone; also recorded: significantly exceeded the effect of ivospemin alone
same,toxicity of the chemotherapeutic agent with ivospemin co-treatment (cell viability),CaOV-3,significantly increased; also recorded: increased the toxicity
same,average time between VDID8+ cell injection and ascites formation,[1],41.7 days
same,average ascites volume at first drain,[1],2.03 mL
same,effect on survival as single agent,[1],Neither gemcitabine nor topotecan produced a statistically significant survival benefit
same,effect on survival as single agent,[1]; listed as Gemcitabine,little effect
same,toxicity of the chemotherapeutic agent with ivospemin co-treatment (cell viability),A2780,significantly exceeded the effect of ivospemin alone
same,toxicity of the chemotherapeutic agent with ivospemin co-treatment (cell viability),OV90,did increase; also recorded: increased the toxicity
same,added in vitro toxicity/benefit of the chemotherapeutic over ivospemin (SBP-101) alone,[3],increased ivospemin toxicity; also recorded: increased the in vitro toxicity of SBP-101
CC(=O)O[C@H]1C(=O)[C@@]2(C)[C@H]([C@H](OC(=O)c3ccccc3)[C@]3(O)C[C@H](OC(=O)[C@H](O)[C@@H](NC(=O)c4ccccc4)c4ccccc4)C(C)=C1C3(C)C)[C@]1(OC(C)=O)CO[C@@H]1C[C@@H]2O [paclitaxel],toxicity of the chemotherapeutic agent with ivospemin co-treatment (cell viability),OV90,did not increase
same,added in vitro toxicity/benefit of the chemotherapeutic over ivospemin (SBP-101) alone,[3],little to no benefit
same,added in vitro toxicity/benefit of the chemotherapeutic over ivospemin (SBP-101) alone,[3]; listed as Paclitaxel,did not have any added benefit
"NCCCC(N)(C(=O)O)C(F)F (stereo not shown) [eflornithine, 2,5-diamino-2-(difluoromethyl) pentanoic acid]",decrease in tumor putrescine levels,tumor putrescine levels,90%
CC[C@@]1(O)C(=O)OCc2c1cc1n(c2=O)Cc2cc3c(CN(C)C)c(O)ccc3nc2-1 [topotecan],toxicity of the chemotherapeutic agent with ivospemin co-treatment (cell viability),ACRP,greater toxicity than ivospemin alone; also recorded: significantly exceeded the effect of ivospemin alone
same,toxicity of the chemotherapeutic agent with ivospemin co-treatment (cell viability),CaOV-3,significantly increased; also recorded: increased the toxicity
same,average time between VDID8+ cell injection and ascites formation,[1],43.4 days
same,average ascites volume at first drain,[1],3.19 mL
same,effect on survival as single agent,[1],Neither gemcitabine nor topotecan produced a statistically significant survival benefit; also recorded: little effect
same,toxicity of the chemotherapeutic agent with ivospemin co-treatment (cell viability),A2780,significantly exceeded the effect of ivospemin alone
same,toxicity of the chemotherapeutic agent with ivospemin co-treatment (cell viability),OV90,did increase; also recorded: increased the toxicity
same,added in vitro toxicity/benefit of the chemotherapeutic over ivospemin (SBP-101) alone,[3],increased ivospemin toxicity; also recorded: increased the in vitro toxicity of SBP-101
"CCNCCC(O)CNCCCCNCC(O)CCNCC (stereo not shown) [ivospemin, 3,8,13,18-tetraazaicosane-6,15-diol]",IC50,"ACRP; ivospemin 96 hours, cisplatin resistant",1.41 µM
same,ODC activity,ODC,depression of ODC activity
same,ODC activity,ODC; listed as SBP-101,decreases ODC activity
same,IC50,"CaOV-3; Homo sapiens, ivospemin 96 hours, CaOV-3, cisplatin resistant",2.56 µM
same,average time between VDID8+ cell injection and ascites formation,[1],39.5 days
same,median survival,"[1]; days post-injection, ivospemin 24 mg/kg 2qw×3 alternating weeks, gemcitabine 30 mg/kg qw×4, topotecan 1 mg/kg 3qw×4, i.p.",52 days
same,increase in median survival compared to untreated (control) animals,[1]; gemcitabine/topotecan combination study,20%
same,average ascites volume at first drain,[1],1.15 mL
same,effect on survival as single agent,[1]; listed as SBP-101,marked increase; also recorded: significantly increased
same,IC50,"A2780; Homo sapiens, ivospemin 96 hours, A2780, cisplatin sensitive",0.95 µM
same,tumor burden and ascites formation,VDID8+ cells,Neither ivospemin alone nor the combination treatment decrease tumor burden or delayed ascites formation
same,IC50,"OV90; Homo sapiens, OV-90, ivospemin 96 hours, OV90, cisplatin sensitive",3.24 µM
same,IC50,"[3]; 96 hours, A2780, OV90, ACRP, CaOV-3, read-out: IC50 values, all four lines",0.95 to 3.24 µM
same,SSAT activity,SSAT,increases SSAT activity
same,SSAT activity,SSAT; listed as SBP-101,increase SSAT activity
CC(=O)O[C@@]12CO[C@@H]1C[C@H](O)[C@@]1(C)C(=O)[C@H](O)C3=C(C)[C@@H](OC(=O)[C@H](O)[C@@H](NC(=O)OC(C)(C)C)c4ccccc4)C[C@@](O)([C@@H](OC(=O)c4ccccc4)[C@H]21)C3(C)C [docetaxel],toxicity of the chemotherapeutic agent with ivospemin co-treatment (cell viability),OV90,did not increase
same,added in vitro toxicity/benefit of the chemotherapeutic over ivospemin (SBP-101) alone,[3],little to no benefit; also recorded: did not have any added benefit

# Reference: US20260272966A1, “COMBINATION TREATMENT FOR OVARIAN CANCER” (THE JOHNS HOPKINS UNIVERSITY, priority 2023, published 2026)
